Patent publication US20230302036A1, “COMPOSITIONS FOR TREATMENT OF SPINAL MUSCULAR ATROPHY” (priority 2020, published 2023)
Oligonucleotides are written 5' to 3', each unit as a sugar letter and its base; * is a phosphorothioate linkage, no mark a phosphodiester; rarer units and linkages stand in square brackets, end groups in braces. Plain capitals give the bases only. e = 2'-O-(2-methoxyethyl) (MOE); [5mC] = 5-methylcytosine

Tests used:
[1] = system: endogenous SMN2 E7 alternative splicing; assay: SMN2 E7 alternative splicing by radioactive RT-PCR in HEK293T cells; assay type: cell-based, human; conditions: for effect of the drug on ASO1's effect on E7 inclusion: HEK293T transfected with 25 nM ASO1, increasing doses of TSA 24 hr; for effect of the drug on ASO1's effect on E7 inclusion / effect on SMN2 E7 inclusion, agent alone: 25 µM 5-AZA 48 hr; for effect on SMN2 E7 inclusion, agent alone: 25 nM ASO, 3 µM TSA 24 hr, 3 µM CPT
Procedure: Alternative splicing was analyzed by radioactive RT-PCR followed by native polyacrylamide gel electrophoresis and autoradiography. Bars display means ± SD of percentage of the radioactivity in the FL band over the sum of radioactivity measurements in the FL and ΔE7 bands of at least three independent transfection experiments. A two-tailed Student’s t test was used to determine the significance between events. (FIG. 1A) HEK293T cells were co-transfected with the SMN2 minigene and expression vectors for WT^res and hC4 Pol II, followed by addition of α-amanitin. (FIG. 1B) Effect of camptothecin (CPT) on SMN2 E7 alternative splicing. HEK293T cells were incubated for at least 6 hours with 3 µM CPT. Combined effects on endogenous SMN2 E7 alternative splicing of transfection with 25 nM ASO1 and treatment with 3 µM TSA for 24 hr (FIG. 1C), 10 mM VPA for 24 hr (FIG. 1D), or 25 µM 5-AZA for 48 hr (FIG. 1E). Combined effects on HEK293T endogenous SMN2 E7 alternative splicing of transfection with 25 nM each of si-hnRNPA1 and si-hnRNPA2, and treatment with 3 µM TSA for 24 hr (FIG. 1F) or 10 mM VPA for 24 hr (FIG. 1G). […]
HEK293T, HeLa, and SMA type I homozygous and carrier fibroblasts 3813 and 3814 (Coriell Cell Repositories, Camden, New Jersey, United States) were grown in Dulbecco’s modified Eagle’s medium (DMEM) containing 4.5 g of glucose and 10% fetal bovine serum (Gibco) at 37° C. Cells were plated at a density of 2×10^5 cells per well in 12-well plates 24 hr before transfection. siRNA (25 nM), plasmid (500 ng), or ASO (25 nM) transfections were performed 24 hr after cells were plated, using 3 µl of Lipofectamine 2000 (Thermo Fisher Scientific) per well in 12-well plates. 24-48 h later, cells were treated with Trichostatin A (Sigma, T8552), Valproic Acid (Sigma, P4543), 5-Azacytidine (Sigma, A2385) or vehicle for the indicated time, and harvested for downstream procedures. […]

[2] = system: H3K9me2 along SERF1A, MYOD, GAPDH; assay: Specificity control ChIP-qPCR of H3K9me2 on SERF1A, MYOD and GAPDH in HEK293T cells; assay type: cell-based, human
Procedure: FIGS. 6A-6D show antisense oligonucleotides and their effects on chromatin. […] Uppercase, exonic nucleotide sequence. Lowercase, intronic sequences. Upstream highlight, binding site for ASO1. Downstream highlight, binding site for ASO2. Levels of H3K9me2 deposition along small EDRK-rich factor 1A (SERF1A, upstream of SMN2) (FIG. 6B), Myoblast Determination Protein (MYOD) (FIG. 6C), and Glyceraldehyde 3-phosphate dehydrogenase (GAPDH) (FIG. 6D), were assessed by ChIP-qPCR in HEK293T cells. Data represented as mean ± S.D. (n = 4, *p < 0.05, two-tailed Student’s t test).
Approximately 2×10^6 HEK293T cells per sample were treated for 10 min in 1% (v/v) formaldehyde at room temperature to crosslink protein-DNA complexes. Crosslinking was stopped with glycine at a final concentration of 125 mM. Cells were washed twice with cold PBS and swelled on ice for 10 min in 25 mM HEPES pH 8, 1.5 mM MgCl2, 10 mM KCl, 0.1% NP-40, 1 mM DTT and 1× protease inhibitor cocktail set III (Calbiochem). Following Dounce homogenization, the nuclei were collected and resuspended in 1 ml sonication buffer (50 mM HEPES pH 8, 140 mM NaCl, 1 mM EDTA, 0.1% sodium deoxycholate, 0.1% SDS and 1× protease inhibitor cocktail). […] Immunoprecipitated DNA (1.5 µl) and serial dilutions of the 10% input DNA (1:4, 1:20, 1: 100, and 1:500) were analyzed by SYBR-Green real-time qPCR.

[3] = system: H3K9me2 along the SMN2 gene; assay: ChIP-qPCR of H3K9me2 distribution along the SMN2 gene in HEK293T cells; assay type: cell-based, human; conditions: HEK293T; ASO transfection or 10 mM VPA
Procedure: (§3) H3K9me2 (FIG. 2B), total RNAPII (FIG. 2C), P-Ser5 RNAPII (FIG. 2D), and P-Ser2 RNAPII (FIG. 2E) distribution along the SMN2 gene, assessed by ChIP-qPCR in HEK293T cells transfected with the scramble oligo (CTRL) or ASO1 and treated with 10 mM VPA. Four independent immunoprecipitation replicates were conducted per experiment. Data are represented as mean ± S.D. (n = 4, *p < 0.05, two-tailed Student’s t test).
(§4) Total distribution of H3K9me2 (FIG. 3C), total RNAPII (FIG. 3D), P-Ser5 RNAPII (FIG. 3E), and P-Ser2 RNAPII (FIG. 3F) along the SMN2 gene is shown. This distribution was assessed by ChIP-qPCR in HEK293T cells transfected with the scramble oligo (CTRL) or ASO2 and treated with 10 mM VPA. Four independent immunoprecipitation replicates were conducted per experiment. Data are represented as mean ± S.D. (n = 4, *p < 0.05, two-tailed Student’s t test).
Approximately 2×10^6 HEK293T cells per sample were treated for 10 min in 1% (v/v) formaldehyde at room temperature to crosslink protein-DNA complexes. Crosslinking was stopped with glycine at a final concentration of 125 mM. Cells were washed twice with cold PBS and swelled on ice for 10 min in 25 mM HEPES pH 8, 1.5 mM MgCl2, 10 mM KCl, 0.1% NP-40, 1 mM DTT and 1× protease inhibitor cocktail set III (Calbiochem). Following Dounce homogenization, the nuclei were collected and resuspended in 1 ml sonication buffer (50 mM HEPES pH 8, 140 mM NaCl, 1 mM EDTA, 0.1% sodium deoxycholate, 0.1% SDS and 1× protease inhibitor cocktail). DNA was sonicated in an ultrasonic bath (Bioruptor Diagenode) to an average length of 200-500 bp. After addition of 1% (v/v) Triton X-100, samples were centrifuged at 15,000 ×g. Supernatants were immunoprecipitated O/N with 40 µl of pre-coated anti-IgG magnetic beads (Dynabeads M-280, Invitrogen) previously incubated with the antibody of interest for 6 hr at 4° C. The antibodies used were: rabbit anti-H3 (2 µg, Abcam ab1791), mouse anti-H3K9me2 (4 µg, Abcam ab1220), rabbit anti H3K9me3 (4 µg, Abcam ab8898), rabbit anti H3K9Ac (2 µg, Abcam ab4441), rabbit anti Rpb1 NTD (2 µg, Cell Signaling, D8L4Y), rabbit Phospho-Rpb1 CTD Ser2 (2 µg, Cell Signaling, E1Z3G), rabbit Phospho-Rpb1 CTD Ser5 (2 µg, Cell Signaling, D9N5I). Control immunoprecipitations were performed with rabbit IgG (1 µg, Abcam ab171870). […] Immunoprecipitated DNA (1.5 µl) and serial dilutions of the 10% input DNA (1:4, 1:20, 1: 100, and 1:500) were analyzed by SYBR-Green real-time qPCR.

[4] = system: RNAPII (total, P-Ser5, P-Ser2) along the SMN2 gene; assay: ChIP-qPCR of RNAPII distribution along the SMN2 gene in HEK293T cells; assay type: cell-based, human; conditions: ASO transfection vs scramble
Procedure: as §3, §4
Approximately 2×10^6 HEK293T cells per sample were treated for 10 min in 1% (v/v) formaldehyde at room temperature to crosslink protein-DNA complexes. Crosslinking was stopped with glycine at a final concentration of 125 mM. Cells were washed twice with cold PBS and swelled on ice for 10 min in 25 mM HEPES pH 8, 1.5 mM MgCl2, 10 mM KCl, 0.1% NP-40, 1 mM DTT and 1× protease inhibitor cocktail set III (Calbiochem). Following Dounce homogenization, the nuclei were collected and resuspended in 1 ml sonication buffer (50 mM HEPES pH 8, 140 mM NaCl, 1 mM EDTA, 0.1% sodium deoxycholate, 0.1% SDS and 1× protease inhibitor cocktail). DNA was sonicated in an ultrasonic bath (Bioruptor Diagenode) to an average length of 200-500 bp. After addition of 1% (v/v) Triton X-100, samples were centrifuged at 15,000 ×g. Supernatants were immunoprecipitated O/N with 40 µl of pre-coated anti-IgG magnetic beads (Dynabeads M-280, Invitrogen) previously incubated with the antibody of interest for 6 hr at 4° C. The antibodies used were: rabbit anti-H3 (2 µg, Abcam ab1791), mouse anti-H3K9me2 (4 µg, Abcam ab1220), rabbit anti H3K9me3 (4 µg, Abcam ab8898), rabbit anti H3K9Ac (2 µg, Abcam ab4441), rabbit anti Rpb1 NTD (2 µg, Cell Signaling, D8L4Y), rabbit Phospho-Rpb1 CTD Ser2 (2 µg, Cell Signaling, E1Z3G), rabbit Phospho-Rpb1 CTD Ser5 (2 µg, Cell Signaling, D9N5I). Control immunoprecipitations were performed with rabbit IgG (1 µg, Abcam ab171870). Beads were washed sequentially for 5 min each in Low-salt (20 mM Tris-HCl pH 8, 150 mM NaCl, 2 mM EDTA, 1% Triton X-100, 0.1% SDS), High-Salt (20 mM Tris-HCl pH 8, 500 mM NaCl, 2 mM EDTA, 1% Triton X-100, 0.1% SDS) and LiCl buffer (10 mM Tris pH 8.0, 1 mM EDTA, 250 mM LiCl, 1% NP-40, 1% Na-deoxycholate) for 5 min at 4° C. and then twice in TE 1x for 2 min at room temperature. Beads were eluted in 1% SDS and 100 mM NaHCO3 buffer for 15 min at 65° C. and crosslinking was reversed for 6 hr after addition of NaCl to a final concentration of 200 mM. Chromatin was precipitated with ethanol overnight, treated with 20 µg proteinase K, and purified by phenol-chloroform extraction. Immunoprecipitated DNA (1.5 µl) and serial dilutions of the 10% input DNA (1:4, 1:20, 1: 100, and 1:500) were analyzed by SYBR-Green real-time qPCR.

SMN2 E7 = conditions: saturating doses; cited from earlier work
SMN2 pre-mRNA = assay: Transcriptional activation by RT-qPCR of SMN2 pre-mRNA in HEK293T cells; assay type: cell-based, human; conditions: HDAC inhibitor alone
[5] = system: endogenous SMN2 E7 alternative splicing in SMA patient fibroblasts; assay: SMN2 E7 alternative splicing by radioactive RT-PCR in SMA patient fibroblasts (3813); assay type: cell-based, human; conditions: 10 nM ASO1 and 3 µM TSA 24 hr
Procedure: (§1) Combined effects on endogenous SMN2 E7 alternative splicing in transfected (FIG. 5A) HEK293T cells with 25 nM ASO1 and increasing doses of TSA for 24 hr, (FIG. 5B) HeLa cells with 10 nM ASO1 and 3 µM TSA for 24 hr., and (FIG. 5C) SMA patient fibroblasts (3813) with 10 nM ASO1 and 3 µM TSA for 24 hr. Bars display means ± SD of percentage of the radioactivity in the FL band over the sum of radioactivity measurements in the FL and ΔE7 bands of at least three independent transfection experiments. (FIG. 5D and FIG. 5E) Transcriptional activation was assessed by RT-qPCR. (FIG. 5F) HEK293T cells with 3 nM ASO1 and 10 mM VPA for 24 hr. Bars indicate mean transcriptional activation ± SD ratios between precursors of SMN2 and GAPDH as the control gene. Statistical significance was analyzed by two-tailed Student’s t-tests. P < 0.05 was considered statistically significant.
(§2) HEK293T, HeLa, and SMA type I homozygous and carrier fibroblasts 3813 and 3814 (Coriell Cell Repositories, Camden, New Jersey, United States) were grown in Dulbecco’s modified Eagle’s medium (DMEM) containing 4.5 g of glucose and 10% fetal bovine serum (Gibco) at 37° C. […]

[6] = system: endogenous SMN2 E7 alternative splicing in HeLa cells; assay: SMN2 E7 alternative splicing by radioactive RT-PCR in HeLa cells; assay type: cell-based, human; conditions: 10 nM ASO1 and 3 µM TSA 24 hr
Procedure: as §1, §2

## Nc1ncn([C@@H]2O[C@H](CO)[C@@H](O)[C@H]2O)c(=O)n1 [5-AZA, 5-aza cytidine]
[1]
  effect of the drug on ASO1's effect on E7 inclusion: enhanced the effects of ASO1 as effectively as the HDAC inhibitors
[1]; HEK293T
  effect on SMN2 E7 inclusion, agent alone: no effect per se on E7 inclusion

## ASO2: 5′-AAAGTATGTTTCTTCCACAC-3′ 2′-O-methoxyethyl phosphorothioate oligonucleotide; target in SMN2 intron 7 downstream of the ASO1 site (antisense eA*eA*eA*eG*eT*eA*eT*eG*eT*eT*eT*e[5mC]*eT*eT*e[5mC]*e[5mC]*eA*e[5mC]*eA*e[5mC])
[2]
  H3K9 dimethylation in control genes (same TAD: SERF1A; outside TAD: MYOD, GAPDH): neither ASO1 nor ASO2 promoted H3K9 dimethylation
[3]
  H3K9me2 marks along the SMN2 gene: promoted H3K9 methylation
[1]; HEK293T, 25 nM ASO2 in combination with 3 µM CPT 24 hr
  inhibition of SMN2 E7 inclusion, ASO2 combined with CPT: stronger
[1]; HEK293T
  effect on SMN2 E7 inclusion, agent alone: inhibited SMN2 E7 inclusion as efficiently as the elongation inhibitor CPT
[4]
  P-Ser2 RNAPII density: higher
  P-Ser5 RNAPII density: higher
  total RNAPII density: higher

## nusinersen: TCACTTTCATAATGCTGG; 2′-O-(2-methoxyethyl) phosphorothioate-modified antisense-oligonucleotide drug targeting a splicing silencer in SMN2 intron 7 (all 2'-MOE, all phosphorothioate, methylation of C not given here)
SMN2 E7
  inclusion of SMN2 E7: nearly full inclusion of SMN2 E7

## CC[C@@]1(O)C(=O)OCc2c1cc1n(c2=O)Cc2cc3ccccc3nc2-1 [CPT, camptothecin]
[1]; HEK293T
  effect on SMN2 E7 inclusion, agent alone: promoted E7 skipping

## CC(/C=C/C(=O)NO)=C\[C@@H](C)C(=O)c1ccc(N(C)C)cc1 [TSA, trichostatin A]
SMN2 pre-mRNA
  levels of SMN2 pre-mRNA (promoter-proximal amplicon): increased the levels of SMN2 pre-mRNA
[5]
  cooperative effect of TSA with ASO1 on E7 inclusion: reproducible
[1]
  effect of the drug on ASO1's effect on E7 inclusion: dose-dependent
[1]; HEK293T
  effect on SMN2 E7 inclusion, agent alone: less potent than ASO1 in upregulating E7 inclusion
[1]; HEK293T, 25 nM each si-hnRNPA1 and si-hnRNPA2, no ASO1, 3 µM TSA or 10 mM VPA 24 hr
  effect of hnRNPA1/A2 depletion in promoting E7 inclusion upon HDAC inhibitor treatment: stronger
[6]
  cooperative effect of TSA with ASO1 on E7 inclusion: reproducible
